Test results taken from US11858972B2, “Micropeptides and uses thereof” (FUNDACIÓ PRIVADA INSTITUT D'INVESTIGACIÓ ONCOLÒGICA DE VALL …, priority 2018, dated 2024).
*1 amine or outer side, *2 acyl side, *3 side chain or, on linkers, in order; H or OH if unused. Where a SMILES comes first, the peptide text is derived from it. Bridges are numbered along the chain shown (N, C = ends). Roman numbers before positions name the chains, in order. [ ]: non-standard residue; d: D form. Actinocin(9to1) = Cc1c2oc3c(C)ccc(C(=O)[*:1])c3nc-2c(C(=O)[*:2])c(N)c1=O; NMeV = CN[C@H](C(=O)O)C(C)C; Sar = CNCC(=O)O

Tests used:
Type in all cases: cell-based, human
[1] = system: SEQ ID NO:1 in HCT116 and A549 cells; experiment: SEQ ID NO:1 expression (qPCR, Western Blot) after drug treatment, wild-type p53 cells; conditions: cells with wild-type p53 (HCT116 and A549); Doxorubicin 1 μM, Actinomycin D 1 nM, Nutlin-3a 10 μM
Experimental: (§1) FIG. 10. SEQ ID NO: 1 is induced by genotoxic stress in a p53-dependent manner. HCT116, HCT116 p53KO, A549 and BxPC3 were treated with Doxorubicin (1 μM) or Actinomycin D (1 nM) and Nutlin-3a (10 μM). SEQ ID NO: 1 transcriptional levels were measured by qPCR in A549 and HCT116 (A) and in HCT116 p53KO and BxPC-3 (B). mRNA expression is shown relative to the not treated control. SEQ ID NO: 1 protein was measured by Western Blot analysis using a custom-made anti-SEQ ID NO: 1 antibody in A549 and HCT116 (A) and in HCT116 p53KO and BxPC-3 (B). (C) Immunostaining showing the upregulation of SEQ ID NO: 1 in A549 cells using a custom-made anti-SEQ ID NO: 1 antibody upon Doxorubicin treatment.
(§2) Doxorubicin, Actinomycin D and Nutlin-3a were purchased from Sigma-Aldrich. Doxorubicin was used at 1 μM, Actinomycin D was used at […] and Nutlin-3a was used at 10 μM in drug treatment experiments.
(§3) Total RNA was extracted with Trizol® and treated with TURBO™ DNase following provider's recommendations. 1 μg of RNA was retrotranscribed using iScript™ cDNA Synthesis Kit (BioRad). Gene expression was analysed by quantitative real time PCR using PowerUp SYBR Green Master Mix (Thermo Fisher Scientific) in the 7900HT Fast Real-Time PCR System (Applied Biosystems). Cycle threshold (Ct) values were normalized to GAPDH.
(§4) Cells pellets (4-5*10^6 cells) were homogenized in medium-salt lysis buffer (150 mM NaCl, 50 mM Tris pH 8, 1% NP40 and protein inhibitors cocktail). 50 μg of protein was loaded per lane in a 12% acrylamide gel and electrophoresed in Tris-Glycine SDS Running Buffer. The following antibodies were used: Anti-HA-Tag (Abcam, 1:5000), Anti-p53 (Santa Cruz, 1:1000), Anti-p21 (Thermo Fisher, 1:1000), Anti-GAPDH (Thermo Fisher, 1:5000).

[2] = system: SEQ ID NO:1 in HCT116 p53KO and BxPC-3 cells; experiment: SEQ ID NO:1 expression (qPCR, Western Blot) after drug treatment, p53 altered cells; conditions: p53 status altered: HCT116 p53KO, BxPC-3 (mutant p53); Doxorubicin 1 μM, Actinomycin D 1 nM, Nutlin-3a 10 μM
Experimental: as §1, §2, §3, §4

[3] = system: SEQ ID NO 3 in HCT116; experiment: SEQ ID NO: 3 mRNA levels by RT-qPCR after drug treatment in HCT116; conditions: Nutlin3a 10 μM 48 h, Doxorubicin 1 μM 24 h
Experimental: FIG. 25. […] (A) HCT116 and HCT116 p53KO cells were treated with MDM2 inhibitor Nutlin3a (10 μM) during 48 h. […] SEQ ID NO: 3 mRNA levels were tested by RT-qPCR. mRNA levels are presented relative to GAPDH reference gene. Bars represent average of n=3 technical replicates±SD.
as §2, §3

[4] = system: SEQ ID NO 3 in HCT116 p53 KO; experiment: SEQ ID NO: 3 mRNA levels by RT-qPCR after drug treatment in HCT116 p53 knock-out; conditions: Nutlin3a 10 μM 48 h, Doxorubicin 1 μM 24 h
Experimental: FIG. 25. […] (A) HCT116 and HCT116 p53KO cells were treated with MDM2 inhibitor Nutlin3a (10 μM) during 48 h. SEQ ID NO: 3 transcriptional levels were tested by RT-qPCR. mRNA levels are normalized to untreated control (B) HCT116 and HCT116 p53KO cells were treated with genotoxic agent Doxorubicin (1 μM) during 24 h. SEQ ID NO: 3 mRNA levels were tested by RT-qPCR. mRNA levels are presented relative to GAPDH reference gene. Bars represent average of n=3 technical replicates±SD.
as §2, §3

| SMILES | expression of SEQ ID NO:1 (mRNA and protein levels) [1] | expression of SEQ ID NO:1 (mRNA and protein levels) [2] | SEQ ID NO 3 transcriptional levels [3] | SEQ ID NO 3 transcriptional levels [4] |
| --- | --- | --- | --- | --- |
| COc1cccc2c1C(=O)c1c(O)c3c(c(O)c1C2=O)C[C@@](O)(C(=O)CO)C[C@@H]3O[C@H]1C[C@H](N)[C@H](O)[C@H](C)O1 [Doxorubicin] | transcriptional and translational upregulation | do not shown the same response | upregulated | upregulation was impaired |
| Cc1c2oc3c(C)ccc(C(=O)N[C@@H]4C(=O)N[C@H](C(C)C)C(=O)N5CCC[C@H]5C(=O)N(C)CC(=O)N(C)[C@@H](C(C)C)C(=O)O[C@@H]4C)c3nc-2c(C(=O)N[C@@H]2C(=O)N[C@H](C(C)C)C(=O)N3CCC[C@H]3C(=O)N(C)CC(=O)N(C)[C@@H](C(C)C)C(=O)O[C@@H]2C)c(N)c1=O [Actinomycin D] (I: T[dV]P[Sar][NMeV] / II: T[dV]P[Sar][NMeV]; ester I:1-I:C, II:1-II:C; linker I:N-II:N via Actinocin(9to1)) | transcriptional and translational upregulation | do not shown the same response | – | – |
| COc1ccc(C2=N[C@@H](c3ccc(Cl)cc3)[C@@H](c3ccc(Cl)cc3)N2C(=O)N2CCNC(=O)C2)c(OC(C)C)c1 [Nutlin-3a] | transcriptional and translational upregulation | do not shown the same response | upregulated | upregulation was impaired |
